Experimental data reported in patent US20060286575A1, “MCL-1 quadruplex nucleic acids and uses thereof” (Cylene Pharmaceuticals, Inc., priority 2005, published 2006).

What was measured:
[1] = test system: extended MCL-1 sequence (insert 46); assay: Competition assay (Taq polymerase stop reaction as reporter), competitor extended MCL-1 sequence insert 46; format: binding; conditions: FIG. 2
Description: (§1) An example of an affinity competition assay, described hereafter, is useful for determining the relative binding affinities of a test molecule between different types of nucleic acid structures, using the ability of the test molecule to bind and stabilize a specific G-quadruplex structure in a Taq polymerase stop reaction utilized as a reporter system.
(§2) The assay first involves establishing the IC50 of a test molecule in the polymerase arrest assay described above using the fluorescent-labeled oligonucleotide primer. The IC50 concentration is defined as the concentration of test molecule required that yields a 1:1 ratio of quadruplex arrest to full-length product.
(§3) A competitor nucleic acid sequence is titrated into the reaction such that each individual reaction contains the test compound at it's IC50 concentration and an increasing concentration of competitor nucleic acid (increasing from zero). The competitor nucleic acid, may be a short duplex or single strand oligonucleotide, a plasmid DNA sequence, an RNA sequence, or a nucleic acid sequence capable of forming a secondary structure, such as a G-quadruplex. […] The decrease in quadruplex arrest product, relative to the full-length product is measured as a function of concentration of added competitor nucleic acid. Thus the relative binding affinities to different competitor nucleic acid structures can be determined graphically. […]

[2] = test system: MCL-1 wildtype quadruplex sequence (MCL-wt); assay: Competition assay (Taq polymerase stop reaction as reporter), competitor MCL-1 wildtype quadruplex; format: binding; conditions: test compound at its IC50 concentration
Description: as §1, §2, §3

[3] = test system: extended MCL-1 sequence (insert 58); assay: Competition assay (Taq polymerase stop reaction as reporter), competitor extended MCL-1 sequence insert 58; format: binding; conditions: FIG. 2
Description: as §1, §2, §3

[4] = test system: DAOY medulloblastoma cells; assay: Apoptosis induction by Annexin V staining in DAOY cells; format: cell-based
Description: (§4) FIG. 4 depicts the induction of apoptosis following treatment with CX-3543.
(§5) D556 medulloblastoma cells were exposed to 1 uM Compound A-1 for 19 hours. […] The level of apoptosis induced in D556 as measured by Annexin V staining was about 5.5-fold higher than in DMSO-treated cells, as compared to about 1.9-fold in DAOY cells. The relative amount of down-regulation of MCL-1 (approximately 14-fold compared to about 3.2-fold) correlates with the relative level of apoptosis induction (about 5.5-fold as compared to about 1.9-fold).

[5] = test system: MCL-1 mRNA; assay: MCL-1 mRNA expression in D556 medulloblastoma cells (Affymetrix U133+2.0 gene chip); format: cell-based; conditions: 19 hours
Description: (§6) FIG. 3 illustrates Mcl-1 mRNA expression levels in medulloblastoma cells treated with CX-3543. The cells were treated at 0.1 and 1 μM CX-3543 for 19 hours, as measured by Affymetrix U133+2.0 47,000 gene chip.
as §5

[6] = test system: D556 medulloblastoma cells; assay: Apoptosis induction by Annexin V staining in D556 cells; format: cell-based
Description: as §4, §5

[7] = test system: MCL-1 mRNA; assay: MCL-1 mRNA expression in DAOY medulloblastoma cells; format: cell-based; conditions: 1 uM, 19 hours
Description: as §6, §5

[8] = test system: MCL-1 protein; assay: MCL-1 protein levels in cells contacted with compound; format: cell-based; conditions: expected from the mRNA and apoptosis results
Description: as §5

binding to extended MCL-1 sequence insert 46 compared to the wildtype sequence [1]: comparably higher | binding to the MCL-1 sequence shown in FIG. 2 [2]: binds | binding to extended MCL-1 sequence insert 58 compared to the wildtype sequence [3]: comparably higher
Structure (SMILES): CN1CCC[C@H]1CCNC(=O)c1cn2c3c(c(N4CCC(c5cnccn5)C4)c(F)cc3c1=O)Oc1cc3ccccc3cc1-2 (stereo partly shown) [Compound A-1]
level of apoptosis induced, relative to DMSO-treated cells [4]: about 1.9 fold | rank of Mcl-1 among genes with statistically significant change relative to DMSO control ([5]; D556 cells, 1 μM, out of more than 500 genes): eighth most highly down-regulated gene | MCL-1 mRNA down-regulation ([5]; D556 medulloblastoma cells, 1 uM): approximately 14 fold | level of apoptosis induced, relative to DMSO-treated cells ([6]; D556 cells): about 5.5 fold | apoptosis induction, D556 compared with DAOY ([6]; FIG. 4): greater effect of CX-3543 on D556 than on DAOY | MCL-1 mRNA down-regulation [7]: approximately 3.2 fold | MCL-1 protein levels [8]: decreased
